Assay results: the NIST ThermoML archive (doi:10.1016/j.jct.2015.10.013)
Values joined by “and” are separate entries in the source; they are usually repeats but may differ in a detail not shown here. Equal values may be shown once. Numbers after ± are expanded uncertainties.

Tests used:
[1] = molar enthalpy of vaporization or sublimation; details: 298.15 K; Crystal; Static calorimetry
[2] = Crystal, Calculated from knudsen effusion weight loss

CN1c2ccccc2Sc2ccccc21 [10-methylphenothiazine]
Details | molar enthalpy [kcal/mol]
[1] | 24.8 ± 0.55

[2]
Details | vapor or sublimation pressure
337.16 K | 9.9e-05 ± 6e-05 kPa and 9.8e-05 ± 6e-05 kPa and 9.7e-05 ± 6e-05 kPa
339.27 K | 0.000127 ± 6e-05 kPa and 0.000128 ± 6e-05 kPa and 0.000124 ± 6e-05 kPa
341.16 K | 0.000156 ± 6e-05 kPa and 0.000152 ± 6e-05 kPa
343.16 K | 0.000187 ± 6e-05 kPa and 0.000186 ± 6e-05 kPa and 0.000188 ± 6e-05 kPa
345.25 K | 0.000242 ± 6.1e-05 kPa and 0.000237 ± 6.1e-05 kPa and 0.000246 ± 6.1e-05 kPa
347.15 K | 0.000294 ± 6.1e-05 kPa and 0.000295 ± 6.1e-05 kPa and 0.000286 ± 6.1e-05 kPa
349.16 K | 0.000354 ± 6.1e-05 kPa and 0.000353 ± 6.1e-05 kPa and 0.000361 ± 6.1e-05 kPa
351.26 K | 0.000456 ± 6.2e-05 kPa and 0.000445 ± 6.2e-05 kPa and 0.00046 ± 6.2e-05 kPa
353.16 K | 0.000551 ± 6.3e-05 kPa and 0.000553 ± 6.3e-05 kPa and 0.000539 ± 6.3e-05 kPa
355.16 K | 0.000655 ± 6.4e-05 kPa and 0.000671 ± 6.5e-05 kPa
357.26 K | 0.000853 ± 6.7e-05 kPa and 0.00084 ± 6.7e-05 kPa and 0.000822 ± 6.7e-05 kPa
359.15 K | 0.001002 ± 9.3e-05 kPa and 0.001018 ± 9.4e-05 kPa and 0.00102 ± 9.4e-05 kPa
